Consider 1 molecule from ChEMBL document CHEMBL3864184, “Optimization of Highly Kinase Selective Bis-anilino Pyrimidine PAK1 Inhibitors” (ACS Med Chem Lett, 2016).

Data set [1] has as its target T1, Alpha-2C adrenergic receptor (Homo sapiens) (UniProt P18825).
T1 sequence (whole entry): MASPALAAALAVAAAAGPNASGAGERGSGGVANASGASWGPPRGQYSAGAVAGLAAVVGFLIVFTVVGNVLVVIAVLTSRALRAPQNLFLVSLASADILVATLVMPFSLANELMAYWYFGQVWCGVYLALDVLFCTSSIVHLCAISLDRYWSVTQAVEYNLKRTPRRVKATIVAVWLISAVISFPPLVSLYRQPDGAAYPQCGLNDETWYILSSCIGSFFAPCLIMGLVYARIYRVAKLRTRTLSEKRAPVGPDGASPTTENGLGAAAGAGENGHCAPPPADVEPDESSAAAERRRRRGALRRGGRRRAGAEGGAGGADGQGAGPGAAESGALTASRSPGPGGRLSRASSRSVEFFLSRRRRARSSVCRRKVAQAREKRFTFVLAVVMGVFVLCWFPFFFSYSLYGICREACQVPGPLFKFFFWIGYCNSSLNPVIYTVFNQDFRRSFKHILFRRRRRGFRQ
Put plainly: Activity at alpha-2C adrenergic receptor (unknown origin) at <1 uM.

For data set [2], the target named is 5-hydroxytryptamine receptor 2B (Homo sapiens) (UniProt P41595). Description: Activity at 5HT2B receptor (unknown origin) at <1 uM.
Sequence of 5-hydroxytryptamine receptor 2B (Homo sapiens) (P41595 whole entry, the tested form may be a part): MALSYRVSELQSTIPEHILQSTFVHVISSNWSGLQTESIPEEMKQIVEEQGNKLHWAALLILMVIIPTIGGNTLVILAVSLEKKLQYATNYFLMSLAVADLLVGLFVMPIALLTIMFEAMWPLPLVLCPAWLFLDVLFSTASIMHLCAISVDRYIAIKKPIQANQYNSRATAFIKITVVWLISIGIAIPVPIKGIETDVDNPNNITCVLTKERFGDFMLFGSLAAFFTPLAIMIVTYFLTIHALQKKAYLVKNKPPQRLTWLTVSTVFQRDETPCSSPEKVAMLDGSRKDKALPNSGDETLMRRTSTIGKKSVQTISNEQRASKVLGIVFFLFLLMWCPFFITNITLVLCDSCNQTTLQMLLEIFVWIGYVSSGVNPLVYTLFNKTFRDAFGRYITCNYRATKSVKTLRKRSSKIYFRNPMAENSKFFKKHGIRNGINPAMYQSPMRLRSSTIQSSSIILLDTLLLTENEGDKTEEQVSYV
Data set [3] has as its target T2, Proto-oncogene tyrosine-protein kinase Src (Homo sapiens, UniProt P12931). Put plainly: Inhibition of N-terminal His6-tagged recombinant human Src (1 to 530 residues) expressed in baculovirus infected sf21 cells at 100 nM.
Data set [4] concerns the target Serine/threonine-protein kinase PAK 2 (Homo sapiens, UniProt Q13177).
Description: Inhibition of N-terminal 6His-tagged recombinant human PAK2 (3-end residues) expressed in Escherichia coli
Data set [5] is described as follows: Intrinsic clearance in rat hepatocytes assessed per million cells. It is filed as ADME, cell-based, Hepatocyte. Particulars: read-out: CLH.
The target of data set [6] is T3, Tyrosine-protein kinase Lck (Homo sapiens, UniProt P06239). Description: Inhibition of N-terminal 6His-tagged full length recombinant human LCK expressed in baculovirus expression system.
Target sequence in this assay (P06239 whole entry): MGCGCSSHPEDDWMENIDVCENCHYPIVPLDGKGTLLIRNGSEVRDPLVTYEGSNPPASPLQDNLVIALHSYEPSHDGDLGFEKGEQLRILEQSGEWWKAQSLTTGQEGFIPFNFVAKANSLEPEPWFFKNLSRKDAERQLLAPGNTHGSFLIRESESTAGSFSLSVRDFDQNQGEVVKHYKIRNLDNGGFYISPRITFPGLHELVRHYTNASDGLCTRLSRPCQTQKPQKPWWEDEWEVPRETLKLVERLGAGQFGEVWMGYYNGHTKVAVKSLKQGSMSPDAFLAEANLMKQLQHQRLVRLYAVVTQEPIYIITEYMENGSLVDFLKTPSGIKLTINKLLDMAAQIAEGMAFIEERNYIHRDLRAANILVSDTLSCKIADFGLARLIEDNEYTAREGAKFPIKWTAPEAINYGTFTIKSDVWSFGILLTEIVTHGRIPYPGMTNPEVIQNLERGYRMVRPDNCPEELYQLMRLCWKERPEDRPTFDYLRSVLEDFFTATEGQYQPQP
Data set [7] has as its target D(3) dopamine receptor (Homo sapiens) (UniProt P35462). Put plainly: Activity at dopamine receptor D3 (unknown origin) at <1 uM.
The target of data set [8] is T4, Muscarinic acetylcholine receptor M1 (Homo sapiens) (UniProt P11229).
T4 sequence (whole entry): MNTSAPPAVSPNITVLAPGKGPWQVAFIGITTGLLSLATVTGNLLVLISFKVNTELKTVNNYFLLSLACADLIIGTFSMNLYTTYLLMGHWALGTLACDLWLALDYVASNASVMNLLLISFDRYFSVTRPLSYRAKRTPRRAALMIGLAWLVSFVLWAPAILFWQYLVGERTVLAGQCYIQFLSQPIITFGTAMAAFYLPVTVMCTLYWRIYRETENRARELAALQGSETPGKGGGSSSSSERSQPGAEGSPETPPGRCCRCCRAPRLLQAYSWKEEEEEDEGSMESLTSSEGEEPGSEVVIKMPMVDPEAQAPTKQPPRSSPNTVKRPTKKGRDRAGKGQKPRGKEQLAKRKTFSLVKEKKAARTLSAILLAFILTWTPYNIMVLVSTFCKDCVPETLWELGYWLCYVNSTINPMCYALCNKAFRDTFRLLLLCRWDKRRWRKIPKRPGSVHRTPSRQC
Description: Activity at muscarinic acetylcholine receptor M1 (unknown origin) at <1 uM.

For a further data set, the species on record is Homo sapiens. Description: Activity at CaV-L (unknown origin) at <1 uM.
In data set [9] the target is T2, Proto-oncogene tyrosine-protein kinase Src. Put plainly: Inhibition of N-terminal His6-tagged recombinant human Src (1 to 530 residues) expressed in baculovirus infected sf21 cells.
Data set [10] concerns the target Tyrosine-protein kinase Yes (Homo sapiens, UniProt P07947). To be noted: 100 nM.
Description: Inhibition of N-terminal 6His-tagged full length recombinant human YES expressed in baculovirus expression system at 100 nM
Data set [11] deals with Tyrosine-protein kinase Fyn (Homo sapiens, UniProt P06241). Put plainly: Inhibition of N-Terminal His6-tagged full length recombinant human FYN expressed in baculovirus expression system.
Sequence of Tyrosine-protein kinase Fyn (P06241 whole entry): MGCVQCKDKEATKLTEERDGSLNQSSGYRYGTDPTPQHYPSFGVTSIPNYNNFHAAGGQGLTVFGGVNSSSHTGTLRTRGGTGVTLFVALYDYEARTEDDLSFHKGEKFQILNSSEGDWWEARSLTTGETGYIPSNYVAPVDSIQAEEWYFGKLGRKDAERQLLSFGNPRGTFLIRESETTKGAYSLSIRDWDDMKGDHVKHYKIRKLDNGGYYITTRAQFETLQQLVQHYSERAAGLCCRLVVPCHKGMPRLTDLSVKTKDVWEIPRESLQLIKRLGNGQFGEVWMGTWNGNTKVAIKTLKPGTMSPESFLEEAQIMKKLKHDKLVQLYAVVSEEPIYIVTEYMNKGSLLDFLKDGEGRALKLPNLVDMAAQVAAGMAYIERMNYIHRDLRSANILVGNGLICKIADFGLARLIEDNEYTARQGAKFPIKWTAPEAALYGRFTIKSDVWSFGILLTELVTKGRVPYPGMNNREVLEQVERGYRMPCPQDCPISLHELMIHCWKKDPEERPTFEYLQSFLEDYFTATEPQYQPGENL
Data set [12] in a line: Distribution coefficient, logD of the compound. The format is physicochemical. Particulars: octanol/water.
Data set [13] concerns the target Protein kinase C theta type (Homo sapiens, UniProt Q04759). Put plainly: Inhibition of human PKCtheta at 100 nM.
In data set [14] the target is T5, 5-hydroxytryptamine receptor 2C (Homo sapiens) (UniProt P28335).
T5 sequence (whole entry): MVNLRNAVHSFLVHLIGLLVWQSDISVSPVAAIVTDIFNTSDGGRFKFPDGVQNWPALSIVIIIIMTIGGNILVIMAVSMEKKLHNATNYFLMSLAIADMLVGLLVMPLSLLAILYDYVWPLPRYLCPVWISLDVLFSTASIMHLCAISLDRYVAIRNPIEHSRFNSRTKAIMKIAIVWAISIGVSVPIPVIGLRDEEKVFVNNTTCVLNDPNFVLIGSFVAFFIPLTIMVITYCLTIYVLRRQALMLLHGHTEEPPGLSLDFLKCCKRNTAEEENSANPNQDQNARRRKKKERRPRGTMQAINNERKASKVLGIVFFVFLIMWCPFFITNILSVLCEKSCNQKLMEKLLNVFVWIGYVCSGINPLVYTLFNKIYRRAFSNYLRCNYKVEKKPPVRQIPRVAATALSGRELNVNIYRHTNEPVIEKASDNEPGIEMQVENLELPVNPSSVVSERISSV
Put plainly: Activity at 5HT2C receptor (unknown origin) at <1 uM.

The target in data set [15] is Tyrosine-protein kinase Lyn (Homo sapiens, UniProt P07948). Put plainly: Inhibition of N-terminal his6-tagged recombinant full-length human LYN expressed in baculovirus infected Sf21 cells at 100 nM.
Sequence of Tyrosine-protein kinase Lyn (P07948 2-512 limits assumed): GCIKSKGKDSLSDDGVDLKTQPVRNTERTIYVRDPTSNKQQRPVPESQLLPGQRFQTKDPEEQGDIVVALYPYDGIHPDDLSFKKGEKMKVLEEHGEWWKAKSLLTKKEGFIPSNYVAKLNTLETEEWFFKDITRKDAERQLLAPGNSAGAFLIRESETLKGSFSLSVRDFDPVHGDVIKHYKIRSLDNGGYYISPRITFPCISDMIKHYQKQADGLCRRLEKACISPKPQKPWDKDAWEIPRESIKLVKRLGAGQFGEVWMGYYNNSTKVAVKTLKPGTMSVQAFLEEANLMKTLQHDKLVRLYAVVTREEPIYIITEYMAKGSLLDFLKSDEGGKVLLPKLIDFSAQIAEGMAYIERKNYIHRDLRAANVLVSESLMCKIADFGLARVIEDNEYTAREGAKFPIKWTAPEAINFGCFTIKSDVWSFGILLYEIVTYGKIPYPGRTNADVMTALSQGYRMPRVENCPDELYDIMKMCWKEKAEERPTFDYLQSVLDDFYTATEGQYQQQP
In data set [16] the target is T6, Muscarinic acetylcholine receptor M5 (Homo sapiens) (UniProt P08912).
T6 sequence (whole entry): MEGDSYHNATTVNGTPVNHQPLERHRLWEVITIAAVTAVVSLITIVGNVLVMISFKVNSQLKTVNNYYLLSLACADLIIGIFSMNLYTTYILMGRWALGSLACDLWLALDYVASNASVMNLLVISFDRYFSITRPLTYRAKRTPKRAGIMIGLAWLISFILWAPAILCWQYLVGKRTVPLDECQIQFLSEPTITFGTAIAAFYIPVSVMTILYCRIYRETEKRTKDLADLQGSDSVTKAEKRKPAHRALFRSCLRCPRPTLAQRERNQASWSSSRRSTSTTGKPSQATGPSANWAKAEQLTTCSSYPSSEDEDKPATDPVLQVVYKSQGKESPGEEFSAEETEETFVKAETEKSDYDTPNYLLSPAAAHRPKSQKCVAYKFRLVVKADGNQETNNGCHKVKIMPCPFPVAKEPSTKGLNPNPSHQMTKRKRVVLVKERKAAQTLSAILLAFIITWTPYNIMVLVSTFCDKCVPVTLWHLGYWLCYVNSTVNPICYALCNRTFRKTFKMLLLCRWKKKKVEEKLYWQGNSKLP
Put plainly: Activity at muscarinic acetylcholine receptor M5 (unknown origin) at <1 uM.

Data set [17] deals with T3, Tyrosine-protein kinase Lck. Particulars: Sf21, 100 nM.
Target sequence in this assay (P06239 2-509 limits assumed): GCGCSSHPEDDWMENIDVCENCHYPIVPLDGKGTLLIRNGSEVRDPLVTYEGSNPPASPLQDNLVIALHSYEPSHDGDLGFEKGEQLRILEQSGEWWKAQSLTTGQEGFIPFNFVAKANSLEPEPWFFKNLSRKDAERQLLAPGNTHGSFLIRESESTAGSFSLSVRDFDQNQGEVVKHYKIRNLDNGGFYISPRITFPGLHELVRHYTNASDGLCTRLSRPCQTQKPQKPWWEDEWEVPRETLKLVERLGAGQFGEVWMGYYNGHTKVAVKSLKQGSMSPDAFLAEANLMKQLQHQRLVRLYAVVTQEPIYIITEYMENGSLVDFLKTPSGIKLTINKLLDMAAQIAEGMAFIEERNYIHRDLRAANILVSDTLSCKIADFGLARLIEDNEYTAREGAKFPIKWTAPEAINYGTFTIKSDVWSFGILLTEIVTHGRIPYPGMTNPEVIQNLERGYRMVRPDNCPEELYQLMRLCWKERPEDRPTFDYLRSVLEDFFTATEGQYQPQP
Description: Inhibition of N-terminal 6His-tagged full length recombinant human LCK expressed in baculovirus infected Sf21 cells at 100 nM

Active and inactive are the calls of the source. The rule behind the calls is not given here.

T2 sequence (P12931 2-536 limits assumed): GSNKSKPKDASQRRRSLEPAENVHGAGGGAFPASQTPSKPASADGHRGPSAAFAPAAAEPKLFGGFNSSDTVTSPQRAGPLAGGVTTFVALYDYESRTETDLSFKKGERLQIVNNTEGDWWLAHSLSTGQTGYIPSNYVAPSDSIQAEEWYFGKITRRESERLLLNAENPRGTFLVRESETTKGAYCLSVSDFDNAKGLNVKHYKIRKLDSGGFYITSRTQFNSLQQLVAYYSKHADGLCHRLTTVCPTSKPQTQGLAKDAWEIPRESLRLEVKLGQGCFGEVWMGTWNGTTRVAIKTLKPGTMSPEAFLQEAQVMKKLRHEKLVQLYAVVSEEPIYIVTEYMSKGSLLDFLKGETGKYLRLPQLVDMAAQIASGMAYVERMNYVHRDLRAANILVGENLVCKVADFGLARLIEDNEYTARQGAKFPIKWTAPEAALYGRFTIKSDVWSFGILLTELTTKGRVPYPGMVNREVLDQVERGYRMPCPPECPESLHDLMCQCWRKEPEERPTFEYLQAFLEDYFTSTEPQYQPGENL
Sequence of Protein kinase C theta type (Q04759 whole entry, looked up): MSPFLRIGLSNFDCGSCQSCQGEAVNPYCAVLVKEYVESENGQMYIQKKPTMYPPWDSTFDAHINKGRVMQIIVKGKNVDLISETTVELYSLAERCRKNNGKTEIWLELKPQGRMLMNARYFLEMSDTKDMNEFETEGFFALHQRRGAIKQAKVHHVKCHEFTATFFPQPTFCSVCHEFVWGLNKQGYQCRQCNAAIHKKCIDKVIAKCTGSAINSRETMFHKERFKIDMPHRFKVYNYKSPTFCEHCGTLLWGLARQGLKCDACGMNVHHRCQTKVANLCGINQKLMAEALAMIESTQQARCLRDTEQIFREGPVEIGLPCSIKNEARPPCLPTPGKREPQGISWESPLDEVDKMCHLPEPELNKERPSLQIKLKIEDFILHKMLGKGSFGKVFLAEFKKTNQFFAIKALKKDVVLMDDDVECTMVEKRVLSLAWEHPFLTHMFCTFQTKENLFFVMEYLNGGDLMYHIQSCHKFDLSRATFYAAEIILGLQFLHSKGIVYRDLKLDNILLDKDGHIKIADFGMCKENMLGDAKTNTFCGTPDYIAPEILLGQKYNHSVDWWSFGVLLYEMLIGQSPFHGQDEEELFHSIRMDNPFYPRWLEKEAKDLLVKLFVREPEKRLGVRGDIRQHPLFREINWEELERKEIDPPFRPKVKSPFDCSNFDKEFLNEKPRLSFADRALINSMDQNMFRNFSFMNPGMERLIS
Sequence of Tyrosine-protein kinase Yes (P07947 2-543 limits assumed): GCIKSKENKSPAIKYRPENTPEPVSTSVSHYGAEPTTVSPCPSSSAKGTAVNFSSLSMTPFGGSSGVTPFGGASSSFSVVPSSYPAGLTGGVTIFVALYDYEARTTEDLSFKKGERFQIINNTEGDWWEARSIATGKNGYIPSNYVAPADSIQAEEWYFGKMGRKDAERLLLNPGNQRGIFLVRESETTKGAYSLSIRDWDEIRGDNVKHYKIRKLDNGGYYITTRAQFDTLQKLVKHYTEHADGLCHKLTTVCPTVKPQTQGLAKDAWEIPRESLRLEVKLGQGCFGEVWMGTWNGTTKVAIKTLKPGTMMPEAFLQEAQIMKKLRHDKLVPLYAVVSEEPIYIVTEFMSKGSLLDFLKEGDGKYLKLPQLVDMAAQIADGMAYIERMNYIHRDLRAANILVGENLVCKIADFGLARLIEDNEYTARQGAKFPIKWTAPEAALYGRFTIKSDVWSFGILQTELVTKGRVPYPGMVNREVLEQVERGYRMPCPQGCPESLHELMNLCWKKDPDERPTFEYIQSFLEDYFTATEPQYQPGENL
Sequence of D(3) dopamine receptor (Homo sapiens) (P35462 whole entry): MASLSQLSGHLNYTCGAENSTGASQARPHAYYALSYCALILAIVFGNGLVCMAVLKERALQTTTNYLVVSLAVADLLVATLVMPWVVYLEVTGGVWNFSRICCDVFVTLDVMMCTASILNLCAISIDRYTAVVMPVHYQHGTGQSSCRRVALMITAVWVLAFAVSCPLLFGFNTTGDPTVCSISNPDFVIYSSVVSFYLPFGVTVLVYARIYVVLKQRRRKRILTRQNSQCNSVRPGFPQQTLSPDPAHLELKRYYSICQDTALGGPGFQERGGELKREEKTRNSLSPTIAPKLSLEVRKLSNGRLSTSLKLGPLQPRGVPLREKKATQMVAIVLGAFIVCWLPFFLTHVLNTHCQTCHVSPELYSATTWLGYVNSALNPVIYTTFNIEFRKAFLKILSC

On to `CCS(=O)(=O)c1cc(Nc2ncc(F)c(N(Cc3ccccc3C#N)c3cc(CO)ccc3C)n2)ccc1N1CCN(C)CC1`, for which the result (in [1]; in data set [2]; in [7]; in data set [8]; in the data set listed under Homo sapiens; in data set [14]) was Active. The result in [16] was Active. Besides, the inhibition turned out to be 86% in data set [3]; 95% in [10]; 91% in [13]; 91% in [15]; 83% in [17]. The IC50 in data set [4] came out at 6 nM; in [6] it was 36 nM; in [9], 93 nM; in data set [11], 45 nM. In addition, the hepatocyte CLint in data set [5] was found to be 30 µL/min/1e6 cells. In [12], this molecule returned a logD of 3.7.
